Measured values from PubChem BioAssay AID1188 (EPA DSSTox, 2008).
Activity calls are given as the source filed them.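 How the source made its calls: active means a concentration killing half the fathead minnows in the acute test was determined; inconclusive means some fish died but not half at top dose; inactive means no fish died even at top dose.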

Tested on: Fathead minnow (Pimephales promelas) acute toxicity, lethality
Experiment: DSSTox (EPAFHM) EPA Fathead Minnow Acute Toxicity
Description: The EPA Fathead Minnow Acute Toxicity database was generated by the U.S. EPA Mid-Continental Ecology Division (MED) for the purpose of developing an expert system to predict acute toxicity from chemical structure based on mode of action considerations. […] A second valuable aspect of this database, from a QSAR modeling perspective, is the inclusion of general mode-of-action (MOA) classifications of acute toxicity response for individual chemicals derived from study results. MOA assignments are biologically based classifications, allowing definition of chemical similarity based upon biological activity instead of organic chemistry functional class as most commonly employed in QSAR study. MOA classifications should strengthen the scientific basis for construction of individual QSARs. However, it is cautioned that the broad MOA categorizations should not be construed to represent a single molecular mechanism; for example, CNS seizure agents and respiratory inhibitors are known to act through a variety of receptors. The EPA Fathead Minnow database and results have been used by EPA MED to build components of the ASTER prediction system, which incorporates MOA-based QSARs for the prediction of aquatic toxicity of environmental and industrial chemicals. Briefly, MOA classifications for individual chemicals, derived from experiments and provided in the EPA Fathead Minnow database, were used to derive substructural rules for assigning a new chemical to an MOA category based solely on chemical structure. Once a new chemical is assigned to an MOA category on this basis, the logP-based QSAR for that MOA category is applied.
The DSSTox EPAFHM database (available from the DSSTox Source URL) includes information pertaining to organic chemical class assignments (ChemClass_FHM), acute toxicity in fathead minnow (LC50_mg), dose-response assessments (LC50_Ratio, ExcessToxicityIndex), behavioral assessments (FishBehaviorTest), joint toxicity MOA evaluations of mixtures (MOA_MixtureTest), and additional MOA evaluation of fish acute toxicity syndrome (FishAcuteToxSyndrome) in rainbow trout. All of these indicators, to the extent available, were considered in the determination of MOA and, additionally, were used to determine a level of confidence in the MOA assignment for each chemical (MOA_Confidence). […] Activity Score is mapping of LOG10 (1/LC50_mmol) activity values spanning activity range [MIN, MAX] onto Integer 1-100 Activity range, where 100 is highest potency and 1 is lowest. If Activity Outcome is "active": Activity Score = 100 * INTEGER[(log10(1/ LC50_mmol) - MIN)/([…])].

Compound | Potency | outcome
C1COCCO1 | 117000 µM | –
Cc1ncc[nH]1 | 3480 µM | –
Oc1ccc(Cl)cc1 | 47.5 µM | –
CCCCCCCBr | 8.21 µM | –
Cc1cccc([N+](=O)[O-])c1 | 187 µM | –
COC(=O)c1ccc(C#N)cc1 | 290 µM | –
CC(C)(C)CC(C)(C)N | 190 µM | –
CC[N+](CC)(CC)Cc1ccccc1 | 707 µM | –
COc1ccc(O)cc1 | 886 µM | –
CC(=O)c1ccncc1 | 1390 µM | –
CNc1ccc(F)cc1 | 307 µM | –
CC1(C)[C@@H]2CC[C@@]1(C)C(=O)[C@H]2Br | 296 µM | –
CCCCCCC(C)N (stereo unspecified) | 40.2 µM | –
CC(=O)c1ccc(Cl)cc1Cl | 68.9 µM | –
COc1cc(O)c(C=O)c(OC)c1 | 14.7 µM | –
CCCCC(=O)CCCC | 218 µM | –
O=Cc1cc(O)ccc1[N+](=O)[O-] | 251 µM | –
O=c1ccc(Cl)c[nH]1 | 8800 µM | –
CCc1cccc(CC)c1 | 30.9 µM | –
CC1=CC(=O)c2ccccc2C1=O | 0.639 µM | –
CCC1(CCC(C)C)C(=O)NC(=O)NC1=O | 377 µM | –
CC(=O)c1cccn1C | 1280 µM | –
CCOC(=O)c1ccccc1O | 122 µM | –
CCOC(=O)CC(SP(=S)(OC)OC)C(=O)OCC (stereo unspecified) | 42.7 µM | –
O=C(c1ccc(Br)cc1)c1cccnc1 | 77.8 µM | –
CCOP(=S)(Oc1ccc([N+](=O)[O-])cc1)c1ccccc1 (stereo unspecified) | 0.243 µM | –

Compound | Potency | outcome
Cc1cccc(Cl)c1C#N | 99.6 µM | –
CCN(CC)c1ccc(C=O)c(O)c1 | 27.7 µM | –
COc1cccc(O)c1 | 596 µM | –
Oc1c(Br)cc(Br)cc1Br | 19.8 µM | –
O=Cc1ccccc1[N+](=O)[O-] | 95.3 µM | –
CC(C)(O)C(F)(F)C(F)F | 3640 µM | –
O=[N+]([O-])c1cccc(Cl)c1 | 119 µM | –
ClC(Cl)(Cl)C(Cl)(Cl)Cl | 6 µM | –
CCCCCCOc1ccc(C=O)cc1OC | 11.3 µM | –
CCN(CC)CCCC(C)=O | 2140 µM | –
O=Cc1cccc(C(F)(F)F)c1 | 5.31 µM | –
CCCCCCCCC#N | 37.7 µM | –
COP(=S)(OC)SCn1nnc2ccccc2c1=O | 0.202 µM | –
O=Cc1cc(Br)cc(Br)c1O | 3.04 µM | –
N#Cc1cc(Cl)c(O)c(Cl)c1 | 129 µM | –
CCCCCCCCCCc1ccc(N)cc1 | 0.266 µM | –
C#CCN(CC#C)CC#C | 2260 µM | –
Nc1ccc([N+](=O)[O-])cc1 | 905 µM | –
CCCCCCCCN | 40.2 µM | –
O=[N+]([O-])c1cc([N+](=O)[O-])c2ccccc2c1O | 14.5 µM | –
CCCc1ccc(O)cc1 | 80.8 µM | –
O=[N+]([O-])c1ccc(O)cc1 | 322 µM | –
CCC(C)(C)c1ccc(O)cc1 | 15.8 µM | –
Cc1ccc(SSc2ccc(C)cc2)cc1 | – | inactive; moa not determined either due to lack of toxicity at saturation or late test res
CC(=O)/C=C/C1=C(C)CCCC1(C)C | 26.5 µM | –
CCC#N | 27600 µM | –

Compound | Potency | outcome
CC(O)CC(C)(C)O (stereo unspecified) | 90500 µM | –
NC(=O)c1ccccc1 | 5460 µM | –
CNC(=O)Oc1ccccc1OC(C)C | 42.1 µM | –
Cc1cc(O)ccc1Cl | 38.4 µM | –
CC(N)CN (stereo unspecified) | 13600 µM | –
C#CCCO | 515 µM | –
OCCOCCOCCO | 459000 µM | –
NC(=O)c1cccc(Br)c1 | 463 µM | –
CCCCOC(=O)c1ccccc1C(=O)OCCCC | 3.59 µM | –
Cc1cccc(Cl)n1 | 1820 µM | –
C#CC(C)(C)O | 39100 µM | –
O=[N+]([O-])c1ccc(F)cc1 | 201 µM | –
C=C(CCl)CCl | 1.52 µM | –
CC/C(C)=N/O | 9680 µM | –
CCOC(=O)CC(=O)OCC | 91.8 µM | –
c1ccc(Oc2ccccc2)cc1 | 23.5 µM | –
CCCCOC(=O)/C=C/C(=O)OCCCC | 2.76 µM | –
ClCCCCl | 982 µM | –
Nc1ccc(Br)cn1 | 1020 µM | –
CCCCCC | 29 µM | –
CN(C)C(=O)Nc1ccc(Cl)c(Cl)c1 | 60.9 µM | –
OCCCc1cccnc1 | 1090 µM | –
C1CCC(C2CCCCC2)CC1 | – | inactive; moa not determined either due to lack of toxicity at saturation or late test res
O=C1C2CC3CC(C2)CC1C3 | 405 µM | –
Oc1ccc(Cl)cc1O | 10.9 µM | –
COc1cc(C=O)ccc1O | 551 µM | –

Compound | Potency | outcome
CC(O)CN (stereo unspecified) | 33600 µM | –
CCNCc1ccccc1 | 422 µM | –
NCCCN | 16100 µM | –
Cn1c(=O)c2c(ncn2C)n(C)c1=O | 778 µM | –
O=[N+]([O-])c1ccccc1O | 1150 µM | –
O=[N+]([O-])c1ccccc1Oc1ccc(Cl)cc1 | 7.69 µM | –
NCCN | 3660 µM | –
Nc1c(Cl)c(Cl)cc(Cl)c1Cl | 1.17 µM | –
CCCCCCCCCCCCN | 0.556 µM | –
c1ccccc1 | 225 µM | –
ClCCCCCCl | 179 µM | –
Nc1ccccc1 | 1130 µM | –
CCCCC(C)=O | 4270 µM | –
COc1ccc(C(C)=O)c(OC)c1OC | 947 µM | –
O=c1cccc(Cl)[nH]1 | 1650 µM | –
C=CC(=O)OCCCCCCCCCCCC | – | inactive; moa not determined either due to lack of toxicity at saturation or late test res
C=CCNc1ccccc1 | 270 µM | –
CCCCSCCCC | 24.5 µM | –
IC(I)I | 7.42 µM | –
C=C(C)C(=O)OCc1ccccc1 | 26.5 µM | –
CCc1c(Br)c(Br)c(Br)c(Br)c1Br | – | inactive; moa not determined either due to lack of toxicity at saturation or late test res
Nc1ccc([N+](=O)[O-])cc1Cl | 116 µM | –
Clc1cccc(Cl)c1 | 54.6 µM | –
Nc1ccc(Cl)cc1 | 246 µM | –
Nc1ccc(O)c([N+](=O)[O-])c1 | 235 µM | –
CCOc1ccc(N)c([N+](=O)[O-])c1 | 143 µM | –

Compound | Potency | outcome
Oc1c(O)c(Cl)c(Cl)c(Cl)c1Cl | 5.12 µM | –
N#Cc1cccc(C(F)(F)F)c1 | 279 µM | –
CCc1ccc(C)nc1 | 669 µM | –
Oc1ccc(Cl)cc1Cc1cc(Cl)ccc1O | 1.15 µM | –
Cc1ccncc1 | 4330 µM | –
COc1cc(C=O)cc(Br)c1O | 258 µM | –
CC1(C)[C@H]2CC[C@]1(C)[C@H](O)C2 | 410 µM | –
CCCCCCCCCN | 15 µM | –
c1cc2c3c(cccc3c1)CC2 | 11.2 µM | –
CCCCCOCCCCC | 19.8 µM | –
O=Cc1ccc(O)cc1O | 95 µM | –
COc1ccccc1C(N)=O | 794 µM | –
C1CCCCC1 | 53.8 µM | –
CCCCCCCC(C)=O | 107 µM | –
Cc1cc(Oc2ccc([N+](=O)[O-])cc2)ccc1Cl | – | inactive; moa not determined either due to lack of toxicity at saturation or late test res
ClCCCCCl | 406 µM | –
CNC(=O)O/N=C/C(C)(C)SC | 4.52 µM | –
ClCc1ccc(CCl)cc1 | 0.223 µM | –
CC1(C)NC(=O)NC1=O | 129000 µM | –
C=CCOC(=O)C(=C)C | 7.85 µM | –
CCCCCCCCCCCCCO | – | inactive; moa not determined either due to lack of toxicity at saturation or late test res
CC(C)c1ccc(C=O)cc1 | 44.7 µM | –
CC(C)c1cccc(C(C)C)c1N | 86.3 µM | –
O=S(=O)([O-])c1ccc[n+](Cc2ccccc2)c1 | 9670 µM | –
CCOC(=O)CCCCCCCCC(=O)OCC | 10.5 µM | –
O=[N+]([O-])c1ccc(Oc2ccccc2)cc1 | 12.3 µM | –

Compound | Potency | outcome
c1cc[c]([Sn]([c]2ccccc2)([c]2ccccc2)[c]2ccccc2)cc1 | – | inactive; moa not determined either due to lack of toxicity at saturation or late test res
O=Cc1cc(Cl)ccc1O | 4.92 µM | –
Nc1ccc(Cl)c(Cl)c1Cl | 18.5 µM | –
C[CH2][Sn]([CH2]C)([CH2]C)[CH2]C | 0.0468 µM | –
Cc1ccc(C)c(O)c1C | 60.2 µM | –
CCCOC(C)=O | 587 µM | –
[N-]=[N+]=[N-] | 84 µM | –
C=CCO | 5.51 µM | –
CCC(C)n1c(=O)[nH]c(C)c(Br)c1=O (stereo unspecified) | 712 µM | –
CCNc1cccc(C)c1 | 366 µM | –
N#Cc1cc(I)c(O)c(I)c1 | 18.3 µM | –
CCCC(C)C1(CC)C(=O)N=C(S)NC1=O (stereo unspecified) | 99.1 µM | –
BrCCCBr | 10.4 µM | –
CC(C)CC=O | 37.7 µM | –
CC(C)(O)C(Cl)(Cl)Cl | 362 µM | –
NCc1ccccc1 | 952 µM | –
CCN(CCO)c1cccc(C)c1 | 295 µM | –
C=C[C@@]1(C)CC[C@H]2C(=CC[C@@H]3[C@]2(C)CCC[C@@]3(C)C(=O)O)C1 | 2.88 µM | –
c1ccc(-c2ccc(-c3ccccc3)o2)cc1 | – | inactive; moa not determined either due to lack of toxicity at saturation or late test res
C#CC(C)(O)c1ccccc1 (stereo unspecified) | 773 µM | –
O=Cc1ccc([N+](=O)[O-])cc1 | 66.8 µM | –
